The values below come from patent US11046889B2, “Polymerizable compound and optically anisotropic body” (DIC Corporation, priority 2015, dated 2021).

The data set is described as follows: Solubility check of 20 wt % solutions in organic solvents. The following applies: room temperature or heated to 60° C.; for Results of Solubility Chloroform: 20 wt % solution in chloroform; for Results of Solubility Cyclopentanone: 20 wt % solution in cyclopentanone; for Results of Solubility MEK: 20 wt % solution in methyl ethyl ketone (MEK); for Results of Solubility MIBK: 20 wt % solution in methyl isobutyl ketone (MIBK); for Results of Solubility Toluene: 20 wt % solution in toluene; for Results of Solubility Trichloroethane: 20 wt % solution in trichloroethane. Details: key: A: the compound dissolves at room temperature; B: the compound does not dissolve at room temperature but dissolves when heated to 60° C.; the compound does not dissolve even when heated to 60° C. The format is physicochemical. On the procedure: 20 wt % solutions of each of the compounds to be evaluated in chloroform, trichloroethane, cyclopentanone, methyl ethyl ketone (MEK), methyl isobutyl ketone (MIBK), and toluene were prepared to check the solubilities of the compound to be evaluated.

Take `C=CC(=O)OCCCCCCOc1ccc(OC(=O)C2CCC(COc3ccc(-c4ccc(CCC)cc4)c(/C=N/N(CCOCCOC)c4nc5ccccc5s4)c3)CC2)cc1` (stereo not drawn) [Compound I-11]: the “Results of Solubility Chloroform” value is listed as “A”, the “Results of Solubility Cyclopentanone” value is given as “A”, the “Results of Solubility MEK” value is “B” and the “Results of Solubility MIBK” value is recorded as “B”. The “Results of Solubility Toluene” value is “A” and the “Results of Solubility Trichloroethane” value is recorded as “A”.
For the compound `C=CC(=O)OCCOCCOCCOc1ccc(OC(=O)C2CCC(COc3ccc(OCC4CCC(C(=O)Oc5ccc(OCCOCCOCCOC(=O)C=C)cc5)CC4)c(/C=N/N(CCCCCC)c4nc5ccccc5s4)c3)CC2)cc1` (stereo not drawn) [Compound I-5], the “Results of Solubility Chloroform” value is given as “A”, the “Results of Solubility Cyclopentanone” value is “A”, the “Results of Solubility MEK” value was “B” and the “Results of Solubility MIBK” value is on record as “B”. In addition, the “Results of Solubility Toluene” value is “A” and the “Results of Solubility Trichloroethane” value is listed as “A”.
Take `C=CC(=O)OCCCCCCOc1ccc(OC(=O)C2CCC(C(=O)Oc3ccc(C4CCC(CCC)CC4)cc3/C=N/N(CCOCCOC)c3nc4ccccc4s3)CC2)cc1` (stereo not drawn) [Compound I-7]: the “Results of Solubility Chloroform” value is on record as “A”, the “Results of Solubility Cyclopentanone” value is recorded as “A”, the “Results of Solubility MEK” value is given as “A” and the “Results of Solubility MIBK” value is “B”. In addition, the “Results of Solubility Toluene” value is given as “A” and the “Results of Solubility Trichloroethane” value is “A”.
For the compound `C=CC(=O)OCCCCCCOc1ccc(OC(=O)C2CCC(C(=O)Oc3ccc(OC(=O)C4CCC(C(=O)Oc5ccc(OCCCCCCOC(=O)C=C)cc5)CC4)c(/C=N/N(COCCOC)c4nc5ccccc5s4)c3)CC2)cc1` (stereo not drawn) [Compound R-1, reference compound], the “Results of Solubility Chloroform” value is listed as “A”, the “Results of Solubility Cyclopentanone” value is “B”, the “Results of Solubility MEK” value is on record as “C” and the “Results of Solubility MIBK” value is given as “C”. The “Results of Solubility Toluene” value was “B” and the “Results of Solubility Trichloroethane” value is “B”.
As to `C=CC(=O)OCCOCCOCCOc1ccc(OC(=O)C2CCC(C(=O)Oc3ccc(C4CCC(CCC)CC4)cc3/C=N/Nc3nc4ccccc4s3)CC2)cc1` (stereo not drawn) [Compound I-2], the “Results of Solubility Chloroform” value is listed as “A”, the “Results of Solubility Cyclopentanone” value is recorded as “A”, the “Results of Solubility MEK” value was “A” and the “Results of Solubility MIBK” value was “B”. Also, the “Results of Solubility Toluene” value was “A” and the “Results of Solubility Trichloroethane” value was “A”.
For the compound `C=CC(=O)OCCCCCCOc1ccc(OC(=O)C2CCC(COc3ccc(C4CCC(CCC)CC4)cc3/C=N/N(CCOCCOC)c3nc4ccccc4s3)CC2)cc1` (stereo not drawn) [Compound I-10], the “Results of Solubility Chloroform” value is listed as “A”, the “Results of Solubility Cyclopentanone” value was “A”, the “Results of Solubility MEK” value is recorded as “B” and the “Results of Solubility MIBK” value is listed as “B”. The “Results of Solubility Toluene” value was “A” and the “Results of Solubility Trichloroethane” value is on record as “A”.
Consider `C=CC(=O)OCCCCCCOc1ccc(OC(=O)C2CCC(COc3ccc(OCC4CCC(C(=O)Oc5ccc(OCCCCCCOC(=O)C=C)cc5)CC4)c(/C=N/N(CCOCCOCCOC(=O)C=C)c4nc5ccccc5s4)c3)CC2)cc1` (stereo not drawn) [Compound I-9], for which the “Results of Solubility Chloroform” value is recorded as “A”, the “Results of Solubility Cyclopentanone” value is “A”, the “Results of Solubility MEK” value is recorded as “A” and the “Results of Solubility MIBK” value is “B”. For the same compound, the “Results of Solubility Toluene” value is “A” and the “Results of Solubility Trichloroethane” value was “A”.
In the case of `C=CC(=O)OCCOCCOCCOc1ccc(OC(=O)C2CCC(C(=O)Oc3ccc(C4CCC(CCC)CC4)cc3/C=N/N(CCCCCC)c3nc4ccccc4s3)CC2)cc1` (stereo not drawn) [Compound I-3], the “Results of Solubility Chloroform” value is on record as “A”, the “Results of Solubility Cyclopentanone” value was “A”, the “Results of Solubility MEK” value is on record as “C” and the “Results of Solubility MIBK” value is “C”. Further, the “Results of Solubility Toluene” value is listed as “B” and the “Results of Solubility Trichloroethane” value is “A”.
For `C=CC(=O)OCCOCCOCCOc1ccc(OC(=O)C2CCC(C(=O)Oc3ccc(C4CCC(C5CCC(CCC)CC5)CC4)cc3/C=N/N(CCCCCC)c3nc4ccccc4s3)CC2)cc1` (stereo not drawn) [Compound I-4], the “Results of Solubility Chloroform” value was “A”, the “Results of Solubility Cyclopentanone” value is reported as “B”, the “Results of Solubility MEK” value is listed as “C” and the “Results of Solubility MIBK” value is given as “C”. The “Results of Solubility Toluene” value is “B” and the “Results of Solubility Trichloroethane” value is on record as “B”.
Consider `C=CC(=O)OCCOCCOCCOc1ccc(OC(=O)C2CCC(C(=O)Oc3ccc(OC(=O)C4CCC(C(=O)Oc5ccc(OCCOCCOCCOC(=O)C=C)cc5)CC4)c4sc(-c5ccc([N+](=O)[O-])cc5)nc34)CC2)cc1` (stereo not drawn) [Compound I-12], for which the “Results of Solubility Chloroform” value is listed as “A”, the “Results of Solubility Cyclopentanone” value is “B”, the “Results of Solubility MEK” value is recorded as “B” and the “Results of Solubility MIBK” value is “C”. In addition, the “Results of Solubility Toluene” value is given as “B” and the “Results of Solubility Trichloroethane” value is reported as “A”.
Turning to `C=CC(=O)OCCCCOC(=O)C1CCC(C(=O)OC2CCC(C(=O)Oc3ccc(OC(=O)C4CCC(OC(=O)C5CCC(C(=O)OCCCCOC(=O)C=C)CC5)CC4)c4c3SC(=C(C#N)C(=O)OCCOCCOC(=O)C=C)S4)CC2)CC1` (stereo not drawn) [Compound I-15], the “Results of Solubility Chloroform” value is “A”, the “Results of Solubility Cyclopentanone” value is given as “B”, the “Results of Solubility MEK” value is recorded as “B” and the “Results of Solubility MIBK” value is “C”. For the same compound, the “Results of Solubility Toluene” value is listed as “B” and the “Results of Solubility Trichloroethane” value is “A”.
With `C=CC(=O)OCCCOC(=O)C1CCC(C(=O)OC2CCC(C(=O)Oc3ccc(OC(=O)C4CCC(OC(=O)C5CCC(C(=O)OCCCOC(=O)C=C)CC5)CC4)c4c3SC(=C3C(=O)N(c5ccccc5)N=C3C(=O)OCC)S4)CC2)CC1` (stereo not drawn) [Compound R-3, reference compound], the “Results of Solubility Chloroform” value was “A”, the “Results of Solubility Cyclopentanone” value is listed as “C”, the “Results of Solubility MEK” value is recorded as “C” and the “Results of Solubility MIBK” value is given as “C”. In addition, the “Results of Solubility Toluene” value is on record as “B” and the “Results of Solubility Trichloroethane” value was “B”.
Take `C=C(C)C(=O)OCCCCCCOc1ccc(OC(=O)C2CCC(COc3ccc(OCC4CCC(C(=O)Oc5ccc(OCCCCCCOC(=O)C(=C)C)cc5)CC4)c(/C=N/N(CCOCCOC)c4nc5ccccc5s4)c3)CC2)cc1` (stereo not drawn) [Compound I-16]: the “Results of Solubility Chloroform” value is “A”, the “Results of Solubility Cyclopentanone” value is “A”, the “Results of Solubility MEK” value is reported as “B” and the “Results of Solubility MIBK” value was “B”. Further, the “Results of Solubility Toluene” value is listed as “A” and the “Results of Solubility Trichloroethane” value is “A”.
On to `C=CC(=O)OCCCOc1ccc(OC(=O)C2CCC(COc3ccc(OCC4CCC(C(=O)Oc5ccc(OCCCOC(=O)C=C)cc5)CC4)c(/C=N/N(CCOCCOC)c4nc5ccccc5s4)c3)CC2)cc1` (stereo not drawn) [Compound I-8], for which the “Results of Solubility Chloroform” value is listed as “A”, the “Results of Solubility Cyclopentanone” value was “A”, the “Results of Solubility MEK” value is on record as “B” and the “Results of Solubility MIBK” value is “B”. Moreover, the “Results of Solubility Toluene” value was “A” and the “Results of Solubility Trichloroethane” value was “A”.
On to `C=CC(=O)OCCOCCOCCOc1ccc(C(=O)Oc2ccc(-c3ccc(CCC)cc3)cc2/C=N/Nc2nc3ccccc3s2)cc1` [Compound I-1], for which the “Results of Solubility Chloroform” value is on record as “A”, the “Results of Solubility Cyclopentanone” value is reported as “A”, the “Results of Solubility MEK” value is reported as “A” and the “Results of Solubility MIBK” value was “A”. Also, the “Results of Solubility Toluene” value is reported as “A” and the “Results of Solubility Trichloroethane” value is reported as “A”.
In the case of `C=CC(=O)OCCCCCCOc1ccc(OC(=O)C2CCC(C(=O)Oc3ccc(OC(=O)C4CCC(C(=O)Oc5ccc(OCCCCCCOC(=O)C=C)cc5)CC4)c4sc(-c5ccc([N+](=O)[O-])cc5)nc34)CC2)cc1` (stereo not drawn) [Compound R-2, reference compound], the “Results of Solubility Chloroform” value is recorded as “B”, the “Results of Solubility Cyclopentanone” value is “C”, the “Results of Solubility MEK” value is “C” and the “Results of Solubility MIBK” value is listed as “C”. The “Results of Solubility Toluene” value was “B” and the “Results of Solubility Trichloroethane” value is reported as “B”.
As for `C=CC(=O)OCCCCCCOc1ccc(OC(=O)C2CCC(COc3ccc(OCC4CCC(C(=O)Oc5ccc(OCCCCCCOC(=O)C=C)cc5)CC4)c(/C=N/N(CCOCCOC)c4nc5ccccc5s4)c3)CC2)cc1` (stereo not drawn) [Compound I-6], the “Results of Solubility Chloroform” value is reported as “A”, the “Results of Solubility Cyclopentanone” value was “A”, the “Results of Solubility MEK” value is on record as “B” and the “Results of Solubility MIBK” value is given as “B”. Moreover, the “Results of Solubility Toluene” value was “B” and the “Results of Solubility Trichloroethane” value is recorded as “A”.
In the case of `C=CC(=O)OCCOCCOc1ccc(OC(=O)C2CCC(C(=O)Oc3ccc(OC(=O)C4CCC(C(=O)Oc5ccc(OCCOCCOC(=O)C=C)cc5)CC4)c4sc(-c5cc6c(C)cc(C)cc6o5)nc34)CC2)cc1` (stereo not drawn) [Compound I-13], the “Results of Solubility Chloroform” value is given as “A”, the “Results of Solubility Cyclopentanone” value was “B”, the “Results of Solubility MEK” value is listed as “C” and the “Results of Solubility MIBK” value is listed as “C”. In addition, the “Results of Solubility Toluene” value is given as “B” and the “Results of Solubility Trichloroethane” value is on record as “A”.
For the compound `C=CC(=O)OCCCCCCOc1ccc(OC(=O)C2CCC(C(=O)Oc3ccc(C4CCC(C5CCC(CCC)CC5)CC4)cc3/C=N/N(CCOCCOC)c3nc4ccccc4s3)CC2)cc1` (stereo not drawn) [Compound I-17], the “Results of Solubility Chloroform” value is reported as “A”, the “Results of Solubility Cyclopentanone” value is “B”, the “Results of Solubility MEK” value is on record as “C” and the “Results of Solubility MIBK” value is on record as “C”. The “Results of Solubility Toluene” value is recorded as “B” and the “Results of Solubility Trichloroethane” value is “B”.
